Test results published in ChEMBL document CHEMBL1132726, “Antioxidant activity and xanthine oxidase inhibition activity of reductic acid: ascorbic acid analogue” (Bioorg Med Chem Lett, 2000).

What was measured:
[1] = molecular target: T1, Xanthine dehydrogenase/oxidase (Bos taurus, UniProt P80457); assay: Compound was tested for the inhibition of xanthine oxidase; Inactive
[2] = molecular target: T1, Xanthine dehydrogenase/oxidase; assay: Compound was tested for the inhibition of xanthine oxidase; Active

T1 sequence (P80457 whole entry): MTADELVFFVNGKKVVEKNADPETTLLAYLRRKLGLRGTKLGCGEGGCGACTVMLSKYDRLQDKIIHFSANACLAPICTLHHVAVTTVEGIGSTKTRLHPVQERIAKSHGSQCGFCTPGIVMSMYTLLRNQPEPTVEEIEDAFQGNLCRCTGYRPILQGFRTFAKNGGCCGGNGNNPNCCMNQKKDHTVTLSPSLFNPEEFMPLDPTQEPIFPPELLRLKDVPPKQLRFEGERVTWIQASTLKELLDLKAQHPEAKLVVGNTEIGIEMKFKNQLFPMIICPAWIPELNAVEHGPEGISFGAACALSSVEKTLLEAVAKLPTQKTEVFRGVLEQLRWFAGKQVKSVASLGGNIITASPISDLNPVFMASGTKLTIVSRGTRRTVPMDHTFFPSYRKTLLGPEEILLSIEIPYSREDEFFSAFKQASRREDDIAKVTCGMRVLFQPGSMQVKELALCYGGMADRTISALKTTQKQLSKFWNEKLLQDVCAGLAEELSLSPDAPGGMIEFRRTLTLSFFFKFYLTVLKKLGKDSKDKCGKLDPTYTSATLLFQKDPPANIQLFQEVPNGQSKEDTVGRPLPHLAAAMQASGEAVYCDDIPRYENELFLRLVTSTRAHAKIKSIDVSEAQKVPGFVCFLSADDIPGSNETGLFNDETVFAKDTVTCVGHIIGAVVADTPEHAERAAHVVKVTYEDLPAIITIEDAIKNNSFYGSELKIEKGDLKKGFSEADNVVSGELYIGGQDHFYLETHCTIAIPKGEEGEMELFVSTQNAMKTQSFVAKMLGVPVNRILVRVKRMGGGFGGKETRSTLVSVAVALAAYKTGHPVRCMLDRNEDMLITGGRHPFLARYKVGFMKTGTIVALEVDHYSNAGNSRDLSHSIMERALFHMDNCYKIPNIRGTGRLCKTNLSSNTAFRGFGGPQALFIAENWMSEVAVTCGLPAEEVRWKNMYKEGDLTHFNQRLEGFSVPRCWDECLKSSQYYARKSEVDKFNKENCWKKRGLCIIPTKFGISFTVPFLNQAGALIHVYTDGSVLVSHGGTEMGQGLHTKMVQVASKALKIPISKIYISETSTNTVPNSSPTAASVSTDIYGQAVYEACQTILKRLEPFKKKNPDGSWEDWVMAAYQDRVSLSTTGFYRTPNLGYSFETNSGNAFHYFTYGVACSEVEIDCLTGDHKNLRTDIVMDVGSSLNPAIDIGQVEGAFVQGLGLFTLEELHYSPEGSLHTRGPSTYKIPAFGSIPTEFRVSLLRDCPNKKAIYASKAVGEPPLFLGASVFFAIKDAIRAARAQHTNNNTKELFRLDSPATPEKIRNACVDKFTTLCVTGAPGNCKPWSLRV

| Activity [1] | Activity [2] | SMILES |
| --- | --- | --- |
| Not Active | – | O=C1COC(O)=C1O |
| Not Active | – | O=C1O[C@H]([C@@H](O)CO)C(O)=C1O [ASCORBIC ACID] |
| – | Active | O=C1CCC(O)=C1O |
